From ChEMBL document CHEMBL4017442, “Recent updates of carbapenem antibiotics” (Eur J Med Chem, 2017) come the findings set out here.

Data set [1] deals with Staphylococcus aureus. Kind of data set: Potentiation of imipenem-induced antibacterial activity against methicillin-reisitant Staphylococcus aureus assessed as fold reduction in imipenem MIC at 10 ug/ml measured after 20 hrs by liquid microdilution method relative to imipenem alone. The class given is functional.
The test system of data set [2] is Staphylococcus aureus. In words: Potentiation of imipenem-induced antibacterial activity against methicillin-reisitant Staphylococcus aureus assessed as imipenem MIC (reference value: 16 ug/ml). Format: functional.
Data set [3] concerns Blood. Kind of data set: Drug uptake in end-stage renal disease patient blood at 0.5 g, iv. Format: ADME, tissue-based. The conditions noted are these: human.
In data set [4] the test system is Blood. In words: Drug uptake in end-stage renal disease patient blood at 0.75 g, iv. Format: ADME, tissue-based. The conditions noted are these: human.
The nature of data set [5]: Elimination half life in human at 1 g, iv administered as single dose. Format: ADME, organism-based. The note with it: in vivo, read-out: beta t1/2 (converted).
Another data set deals with Plasma. In words: Protein binding in human plasma at < 50 ug/ml. Format: ADME, cell-free.
Data set [6] can be described thus: Half life in iv dosed human. The class given is ADME, organism-based. The note with it: in vivo.
The subject of a further data set is Mus musculus. In words: Anti-inflammatory activity in mouse model of CLP-induced sepsis assessed as survival time at 25 ug/g, sc in presence of atorvastatin (reference value: 20 +/- 1.66 hrs). Format: functional.
A short description of data set [7]: Clearance in end-stage renal disease patient undergoing drug hydrolysis. Format: ADME. The note with it: human.
Data set [8] is described as follows: Clearance in end-stage renal disease patient without drug hydrolysis. The conditions noted are these: human. The class given is ADME.
Data set [9] in a line: Ratio of drug level in serum to cerebrospinal fluid in human. Format: ADME.

SMILES strings stand for the structures.

With `C=C/C(C)=C/C[C@@H]1[C@@]2(C)CCCC(C)(C)[C@@H]2C[C@H](O)[C@]1(O)CSC[C@H](NC(C)=O)C(=O)OC`, the “fold change (FC)” value with Staphylococcus aureus [1] is 533.
Broadly, the MIC is the lowest concentration that inhibits growth of the organism. On to `C=C/C(C)=C/C[C@@H]1[C@@]2(C)CCCC(C)(C)[C@@H]2C[C@H](O)[C@]1(O)CSC[C@H](NC(C)=O)C(=O)O`, for which the MIC in the data set with Staphylococcus aureus [2] was 0.05 µg/mL.
In the case of `C=C/C(C)=C/C[C@@H]1[C@@]2(C)CCC[C@](C)(CO)[C@@H]2C[C@H](O)[C@]1(O)CSC[C@H](NC(C)=O)C(=O)O`, the “fold change (FC)” value in the data set on Staphylococcus aureus [1] stood at 123.
With `O=C(O)CCNC(=O)c1ccccc1` [BETAMIPRON], the figures for the Drug uptake in the data set on Blood [3] and in the data set with Blood [4] were 24 mg/L and 39 mg/L, respectively.
In the case of `C[C@@H](O)[C@H]1C(=O)N2C(C(=O)O)=C(S[C@@H]3CN[C@H](C(=O)Nc4cccc(C(=O)O)c4)C3)[C@H](C)[C@H]12` [ERTAPENEM], in data set [5], the half-life is 4 h. The molecule also returned a PPB in the data set on Plasma of 94%.
In turn, `C[C@@H](O)[C@H]1C(=O)N2C(C(=O)O)=C(SCCNC=N)C[C@H]12` [IMIPENEM ANHYDROUS] had a half-life in data set [6] of 1 h. In the data set on Mus musculus, the Survival amounted to 56 h.
As for `CC(=N)N1CC[C@H](SC2=C(C(=O)O)N3C(=O)[C@H]([C@@H](C)O)[C@H]3C2)C1` [PANIPENEM], the half-life in data set [6] is 1.2 h. For the same molecule, the clearance in data set [7] was 159 mL/min; in data set [8] it was 48.7 mL/min. The Drug uptake in the data set with Blood [3] stood at 37 mg/L; in the data set on Blood [4] it was 61 mg/L. Besides, the Ratio in data set [9] stood at 8.
